# US8987312B2, “Alpha-keto heterocycles as FAAH inhibitors” (The Scripps Research Institute, priority 2008, dated 2015)
# Target: T1, purified recombinant rat FAAH (Rattus norvegicus, UniProt P97612)
# T1 construct: The truncated rat FAAH (rFAAH) was expressed in E. coli and purified as described; made in house; host or cells: Escherichia coli
# T1 sequence (P97612 30-579 limits assumed): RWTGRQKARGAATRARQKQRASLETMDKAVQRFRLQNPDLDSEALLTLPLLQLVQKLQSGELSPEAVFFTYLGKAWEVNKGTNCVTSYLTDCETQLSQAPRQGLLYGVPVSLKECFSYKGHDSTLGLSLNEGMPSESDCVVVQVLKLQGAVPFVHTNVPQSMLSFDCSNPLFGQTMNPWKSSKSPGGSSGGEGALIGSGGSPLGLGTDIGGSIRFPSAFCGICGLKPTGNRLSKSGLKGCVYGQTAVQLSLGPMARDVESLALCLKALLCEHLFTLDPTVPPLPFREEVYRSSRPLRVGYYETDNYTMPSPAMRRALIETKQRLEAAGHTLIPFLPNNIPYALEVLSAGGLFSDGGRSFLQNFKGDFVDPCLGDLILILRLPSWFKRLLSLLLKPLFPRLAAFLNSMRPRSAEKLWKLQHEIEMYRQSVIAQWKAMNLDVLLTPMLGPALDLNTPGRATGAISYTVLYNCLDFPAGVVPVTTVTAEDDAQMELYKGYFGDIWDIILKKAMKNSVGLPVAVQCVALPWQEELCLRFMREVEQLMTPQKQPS
# Assay: FAAH inhibition enzyme assay (14C-oleamide hydrolysis, Dixon plot), rat enzyme
# Type: biochemical
# Conditions: Table 2; rat FAAH, pH 9 assay conditions; read-out: Ki
# Source text: The purified recombinant rFAAH was used in the inhibition assays unless otherwise indicated.
# The ^14C-labeled oleamide (substrate) and oleic acid (product) were extracted with EtOAc and analyzed by TLC.
row,Structure (SMILES),Ki [nM]
1,O=C(CCCCCCc1ccccc1)c1nnc(-c2ccccc2)o1 [8e],2.2
2,"O=C(CCCCCCc1ccccc1)c1nnn(-c2ccccc2)n1 [15e, 7-Phenyl-1-(2-phenyl-2H-tetrazol-5-yl)-heptan-1-one]",16
3,"O=C(CCCCCCc1ccccc1)c1nc(-c2ccco2)no1 [9c, 1-(3-(Furan-2-yl)-1,2,4-oxadiazol-5-yl)-7-phenylheptan-1-one]",1
4,"O=C(CCCCCCc1ccccc1)c1ncc(-c2ccco2)s1 [11c, 1-(5-(Furan-2-yl)-thiazol-2-yl)-7-phenylheptan-1-one]",1500
5,"O=C(CCCCCCc1ccccc1)c1noc(-c2ccco2)n1 [10c, 1-(5-(Furan-2-yl)-1,2,4-oxadiazol-3-yl)-7-phenylheptan-1-one]",8.5
6,O=C(CCCCCCc1ccccc1)c1nnc(-c2ccco2)o1 [8c],0.56
7,"O=C(CCCCCCc1ccccc1)c1nnn(-c2cccs2)n1 [15d, 7-Phenyl-1-(2-(thiophen-2-yl)-2H-tetrazol-5-yl)-heptan-1-one]",8.5

# Other lines, results leading:
row,Ki [nM],Structure (SMILES)
1,1.6,"O=C(CCCCCCc1ccccc1)c1nc(-c2cccs2)no1 [9d, 7-Phenyl-1-(3-(thiophen-2-yl)-1,2,4-oxadiazol-5-yl)-heptan-1-one]"
2,40,"O=C(CCCCCCc1ccccc1)c1ccc(-c2ccco2)nn1 [13c, 1-(6-(Furan-2-yl)-pyridazin-3-yl)-7-phenylheptan-1-one]"
3,44,"O=C(CCCCCCc1ccccc1)c1noc(-c2cccs2)n1 [10d, 7-Phenyl-1-(5-(thiophen-2-yl)-1,2,4-oxadiazol-3-yl)-heptan-1-one]"
4,7.4,"O=C(CCCCCCc1ccccc1)c1nnc(-c2ccco2)s1 [12c, 1-(5-(Furan-2-yl)-1,3,4-thiadiazol-2-yl)-7-phenylheptan-1-one]"
5,46,"O=C(CCCCCCc1ccccc1)c1ccc(-c2cccs2)nn1 [13d, 7-Phenyl-1-(6-(thiophen-2-yl)-pyridazin-3-yl)-heptan-1-one]"
6,0.8,"O=C(CCCCCCc1ccccc1)c1nnc(-c2cccs2)o1 [8d, 7-Phenyl-1-(5-(thien-2-yl)-1,3,4-oxadiazol-2-yl)-heptan-1-one]"
7,2000,"O=C(CCCCCCc1ccccc1)c1ncc(-c2cccs2)s1 [11d, 7-Phenyl-1-(5-(thiophen-2-yl)-thiazol-2-yl)-heptan-1-one]"
8,27,"O=C(CCCCCCc1ccccc1)c1nnc(-c2cccs2)s1 [12d, 7-Phenyl-1-(5-(thiophen-2-yl)-1,3,4-thiadiazol-2-yl)-heptan-1-one]"
9,> 100000,"O=C(CCCCCCc1ccccc1)c1nnc(-c2ccccn2)[nH]1 [14b, 7-Phenyl-1-(5-(pyridin-2-yl)-4H-1,2,4-triazol-3-yl)-heptan-1-one]"
10,> 1000,"O=C(CCCCCCc1ccccc1)c1nnc(-c2cccs2)[nH]1 [14d, 7-Phenyl-1-(5-(thiophen-2-yl)-4H-1,2,4-triazol-3-yl)-heptan-1-one]"
11,> 1000,"O=C(CCCCCCc1ccccc1)c1nnc(-c2ccco2)[nH]1 [14c, 1-(5-(Furan-2-yl)-4H-1,2,4-triazol-3-yl)-7-phenylheptan-1-one]"
12,> 1000,"O=C(CCCCCCc1ccccc1)c1nnc[nH]1 [14a, 7-Phenyl-1-(4H-1,2,4-triazol-3-yl)-heptan-1-one]"
13,5,"O=C(CCCCCCc1ccccc1)c1nnn(-c2ccco2)n1 [15c, 1-(2-(Furan-2-yl)-2H-tetrazol-5-yl)-7-phenylheptan-1-one]"

# Same assay, conditions: Table 4; read-out: FAAH Ki
row,Ki [nM],Structure (SMILES)
1,2.2,O=C(CCCCCCc1ccccc1)c1nnc(-c2ccccc2)o1 [8e]

# Same assay, conditions: rat FAAH, pH 9 assay conditions
row,Structure (SMILES),FAAH inhibition (in words)
1,"Cn1nnnc1C(=O)CCCCCCc1ccccc1 [19b, 1-(1-Methyl-1H-tetrazol-5-yl)-7-phenylheptan-1-one]",displayed FAAH inhibition at levels consistent with related compounds
2,"Cn1nnc(C(=O)CCCCCCc2ccccc2)n1 [19a, 1-(2-Methyl-2H-tetrazol-5-yl)-7-phenylheptan-1-one]",displayed FAAH inhibition at levels consistent with related compounds
3,"COC(=O)c1nnc(C(=O)CCCCCCc2ccccc2)[nH]1 [14h, Methyl 5-(7-Phenylheptanoyl)-4H-1,2,4-triazole-3-carboxylate]",inactive

# Same assay, conditions: with respect to oxazole 2
row,loss of FAAH inhibition [fold],Structure (SMILES)
1,> 4000,"O=C(CCCCCCc1ccccc1)c1cnc(-c2ccccn2)o1 [compound 6, 7-Phenyl-1-(2-(pyridin-2-yl)oxazol-5-yl)-heptan-1-one]"

# Target: T2, KIAA1363 (Mus musculus, UniProt Q8BLF1)
# T2 construct: with FP-Rh in brain and heart membrane proteome; from tissue; host or cells: brain and heart membrane proteome
# T2 sequence (Q8BLF1 1-408): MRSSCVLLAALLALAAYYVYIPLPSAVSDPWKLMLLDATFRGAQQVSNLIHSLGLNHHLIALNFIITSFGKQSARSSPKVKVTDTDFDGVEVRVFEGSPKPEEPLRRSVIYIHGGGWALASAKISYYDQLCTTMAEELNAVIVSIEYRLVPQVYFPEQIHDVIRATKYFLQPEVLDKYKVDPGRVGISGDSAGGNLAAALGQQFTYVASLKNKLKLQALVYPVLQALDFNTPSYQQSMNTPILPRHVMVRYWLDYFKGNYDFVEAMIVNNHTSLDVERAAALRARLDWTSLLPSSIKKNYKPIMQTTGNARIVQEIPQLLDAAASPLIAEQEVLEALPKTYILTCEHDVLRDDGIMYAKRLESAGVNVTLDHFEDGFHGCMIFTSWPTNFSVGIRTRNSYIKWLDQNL
# Assay: Activity based protein profiling (proteome-wide selectivity screening, FP-Rh), KIAA1363
# Type: biochemical
# Conditions: Table 4; activity based protein profiling
# Source text: (§1) Enzyme targets such as FAAH, KIAA1363, and TGH are labeled at the left margin.
row,Structure (SMILES),IC50 [nM]
1,"COC(=O)c1nnc(C(=O)CCCCCCc2ccccc2)s1 [12h, Methyl 5-(7-Phenylheptanoyl)-1,3,4-thiadiazole-2-carboxylate]",> 100000
2,"O=C(O)c1cccc(-c2noc(C(=O)CCCCCCc3ccccc3)n2)n1 [9g, 6-(5-(7-Phenylheptanoyl)-1,2,4-oxadiazol-3-yl)-picolinic Acid]",> 100000
3,"COC(=O)c1cccc(-c2nnc(C(=O)CCCCCCc3ccccc3)s2)n1 [12f, Methyl 6-(5-(7-Phenylheptanoyl)-1,3,4-thiadiazol-2-yl)-picolinate]",> 100000
4,"O=C(CCCCCCc1ccccc1)c1ncc(-c2ccccn2)s1 [11b, 7-Phenyl-1-(5-(pyridin-2-yl)-thiazol-2-yl)-heptan-1-one]",> 100000

# Further lines, results first:
row,IC50 [nM],Structure (SMILES)
1,> 100000,"O=C(O)c1cccc(-c2nnc(C(=O)CCCCCCc3ccccc3)s2)n1 [12g, 6-(5-(7-Phenylheptanoyl)-1,3,4-thiadiazol-2-yl)-picolinic Acid]"
2,> 100000,"O=C(O)c1cccc(-c2cnc(C(=O)CCCCCCc3ccccc3)s2)n1 [11g, 6-(2-(7-Phenylheptanoyl)thiazol-5-yl)-picolinic Acid]"
3,> 100000,"O=C(O)c1cccc(-c2ccc(C(=O)CCCCCCc3ccccc3)nn2)n1 [13g, 6-(6-(7-Phenylheptanoyl)-pyridazin-3-yl)-picolinic Acid]"
4,> 100000,"COC(=O)c1cccc(-c2nc(C(=O)CCCCCCc3ccccc3)no2)n1 [10f, Methyl 6-(3-(7-Phenylheptanoyl)-1,2,4-oxadiazol-5-yl)-picolinate]"
5,> 100000,"COC(=O)c1nnc(C(=O)CCCCCCc2ccccc2)o1 [8h, Methyl 5-(7-Phenylheptanoyl)-1,3,4-oxadiazole-2-carboxylate]"
6,> 100000,"O=C(CCCCCCc1ccccc1)c1ccc(-c2ccccn2)nn1 [13b, 7-Phenyl-1-(6-(pyridin-2-yl)-pyridazin-3-yl)-heptan-1-one]"

# Same assay, conditions: Table 4; ratio KIAA1363 IC50 / FAAH IC50 (fold selectivity for FAAH)
row,KIAA1363 selectivity (value in parentheses),Structure (SMILES)
1,> 4000,O=C(CCCCCCc1ccccc1)c1nnc(-c2ccccc2)o1 [8e]

# Target: T3, triacylglycerol hydrolase (TGH) (Mus musculus, UniProt Q8VCT4)
# T3 construct: with FP-Rh in brain and heart membrane proteome; from tissue; host or cells: brain and heart membrane proteome
# T3 sequence (Q8VCT4 19-565): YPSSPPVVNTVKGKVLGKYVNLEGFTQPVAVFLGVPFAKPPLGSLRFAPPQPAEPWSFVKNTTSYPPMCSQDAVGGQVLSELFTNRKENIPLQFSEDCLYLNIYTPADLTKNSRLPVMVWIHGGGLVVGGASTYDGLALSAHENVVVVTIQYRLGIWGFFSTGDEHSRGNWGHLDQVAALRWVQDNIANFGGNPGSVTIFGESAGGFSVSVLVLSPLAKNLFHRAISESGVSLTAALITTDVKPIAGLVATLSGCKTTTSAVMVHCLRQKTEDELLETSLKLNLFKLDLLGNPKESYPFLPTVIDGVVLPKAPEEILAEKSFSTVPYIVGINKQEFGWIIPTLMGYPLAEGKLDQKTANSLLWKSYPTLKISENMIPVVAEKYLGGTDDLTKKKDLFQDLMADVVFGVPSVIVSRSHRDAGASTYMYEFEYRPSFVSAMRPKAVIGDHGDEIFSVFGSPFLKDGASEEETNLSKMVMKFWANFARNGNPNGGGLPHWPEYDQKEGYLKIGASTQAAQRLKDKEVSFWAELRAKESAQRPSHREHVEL
# Assay: Activity based protein profiling (proteome-wide selectivity screening, FP-Rh), TGH
# Type: biochemical
# Conditions: Table 4; activity based protein profiling
# Source text: as §1
row,Structure (SMILES),IC50 [nM]
1,"COC(=O)c1nnc(C(=O)CCCCCCc2ccccc2)s1 [12h, Methyl 5-(7-Phenylheptanoyl)-1,3,4-thiadiazole-2-carboxylate]",11000
2,"O=C(O)c1cccc(-c2noc(C(=O)CCCCCCc3ccccc3)n2)n1 [9g, 6-(5-(7-Phenylheptanoyl)-1,2,4-oxadiazol-3-yl)-picolinic Acid]",40000
3,"O=C(CCCCCCc1ccccc1)c1ncc(-c2ccccn2)s1 [11b, 7-Phenyl-1-(5-(pyridin-2-yl)-thiazol-2-yl)-heptan-1-one]",8000

# Second part, the compound after the results:
row,IC50 [nM],Structure (SMILES)
1,> 100000,"O=C(O)c1cccc(-c2nnc(C(=O)CCCCCCc3ccccc3)s2)n1 [12g, 6-(5-(7-Phenylheptanoyl)-1,3,4-thiadiazol-2-yl)-picolinic Acid]"
2,30000,"O=C(O)c1cccc(-c2cnc(C(=O)CCCCCCc3ccccc3)s2)n1 [11g, 6-(2-(7-Phenylheptanoyl)thiazol-5-yl)-picolinic Acid]"
3,> 100000,"O=C(O)c1cccc(-c2ccc(C(=O)CCCCCCc3ccccc3)nn2)n1 [13g, 6-(6-(7-Phenylheptanoyl)-pyridazin-3-yl)-picolinic Acid]"
4,600,"O=C(CCCCCCc1ccccc1)c1ncc(-c2ccccn2)o1 [compound 2, reference compound]"
5,2000,"COC(=O)c1nnc(C(=O)CCCCCCc2ccccc2)o1 [8h, Methyl 5-(7-Phenylheptanoyl)-1,3,4-oxadiazole-2-carboxylate]"
6,> 100000,"O=C(CCCCCCc1ccccc1)c1ccc(-c2ccccn2)nn1 [13b, 7-Phenyl-1-(6-(pyridin-2-yl)-pyridazin-3-yl)-heptan-1-one]"

# Same assay, conditions: Table 4; ratio TGH IC50 / FAAH IC50 (fold selectivity for FAAH)
row,TGH selectivity (value in parentheses),Structure (SMILES)
1,10,O=C(CCCCCCc1ccccc1)c1nnc(-c2ccccc2)o1 [8e]
2,80,O=C(CCCCCCc1ccccc1)c1nnc(-c2ccco2)o1 [8c]
